Source: patent US20100278733A1, “COMPOSITION FOR DIAGNOSIS OF AMYLOID-RELATED DISEASE” (priority 2007, published 2010)
Values belong to the compound of their own block, whether it stands above or below them.

Columns and labels:
[1] = molecular target: T1, Aβ(1-42) aggregate (Homo sapiens, UniProt P05067); experiment: In-vitro binding inhibition experiment using Aβ(1-42) aggregate (Reference Example 2); settings: ligand [^125I]4-dimethylamino-4′-iodochalcone; compound numbers of Reference Example 2; read-out: Inhibition constant (Ki, nM) (mean ± SE)
T1 construct: Amyloid β protein (Human, 1-42) [TFA form] was purchased from Peptide Institute, Inc; purchased Peptide Institute, Inc
Procedure: (§1) Amyloid β protein (Human, 1-42) [TFA form] was purchased from Peptide Institute, Inc., and special grade reagents were used as other reagents. ^1H-NMR was measured using Varian Gemini 300 and tetramethylsilane as an internal standard substance.
The Aβ(1-42) aggregate was dissolved in a buffer containing 10 mM sodium phosphate and 1 mM EDTA (pH 7.4) at a concentration of 0.5 mg/mL, and the mixture was incubated at 37° C. for 36 to 42 h. The binding inhibition experiment was performed using 12×75-mm borosilicate glass tubes. 850 μL of 10% ethanol solution, 50 μL of [^125I]4-dimethylamino-4′-iodochalcone (in 10% aqueous ethanol), 50 μL (29 nM) of an Aβ(1-42) aggregate solution, and 50 μL of a solution of fluorine-containing chalcone derivatives in 10% aqueous ethanol prepared at various concentrations were mixed, and the mixture was allowed to stand at room temperature for 3 h. Further, nonspecific binding was calculated using 4-dimethylamino-4′iodochalcone (400 nM), a nonradioactive compound. Aβ aggregate-bound chalcone derivatives and nonbound chalcone derivatives were separated with a Brandel M-24R cell harvester using Whatman GF/B filters. Radioactivities of substances remaining on the filter were measured with a γ counter. The 50% inhibitory concentrations were calculated using Graph Pad Prism (graph pad software), and inhibition constants (Ki values) were calculated by Cheng-Prusoff equation, Ki=IC50/(1+[L]/Kd). In this equation, the concentration of [^125I]4-dimethylamino-4′-iodochalcone used in the experiment was used for [L], and the dissociation constant of [^125I]4-dimethylamino-4′-iodochalcone against the Aβ(1-42) aggregate was used for Kd.

[2] = molecular target: T1, Aβ(1-42) aggregate; experiment: In-vitro binding inhibition experiment using Aβ(1-42) aggregate (Example 1); settings: compound numbers of Example 1
Procedure: as §1
The Aβ(1-42) aggregate was dissolved in a buffer containing 10 mM sodium phosphate and 1 mM EDTA (pH 7.4) at a concentration of 0.5 mg/mL, and the mixture was incubated at 37° C. for 36 to 42 h. The binding inhibition experiment was performed using 12×75-mm borosilicate glass tubes. 850 μL of 10% ethanol solution, 50 μL of an Aβ-binding substance ([^125I]4-dimethylamino-4′ iodochalcone) (10% aqueous ethanol), 50 μL (57 nM) of Aβ(1-42) aggregate solution, and 50 μL of 10% aqueous ethanol each containing Compounds 1 and 4 at various concentrations (0.003 to 781 nM) were mixed, and the mixture was allowed to stand at room temperature for 3 h. Further, nonspecific binding was determined using 4-dimethylamino-4′-iodochalcone (400 nM), a nonradioactive compound. Aβ aggregate-bound chalcone derivatives and nonbound chalcone derivatives were separated with a Brandel M-24R cell harvester using a Whatman GF/B filter. The radioactivities of substances remaining on the filter after filtration were measured with a γ counter. […]

[3] = molecular target: T1, Aβ(1-42) aggregate; experiment: Examination of binding site by binding inhibition experiment using Aβ(1-42) aggregate (Example 2); settings: in words, FIG. 10
Procedure: Aβ(1-42) was dissolved in 10 mM phosphate buffer containing 1 mM EDTA (pH 7.4) at a concentration of 0.25 mg/mL, and the mixture was incubated at 37° C. for 42 h to prepare an Aβ(1-42) aggregate.
[…] of 10% EtOH solution, […] of [^125I]CL-NMe2 solution, […] of a solution of congo red, thioflavine T, or compound 14 at various concentrations (0 to 20 mM) were mixed, […] of an Aβ(1-42) aggregate solution was finally added, and the mixture was allowed to stand at room temperature for 3 h. Aβ(1-42) aggregate-bound compounds and nonbound compounds were separated with a Brandel M-24R cell harvester using a Whatman GF/B filter. Radioactivities remaining on the filter after filtration were measured with a γ-counter, and inhibition curves were created using Graph Pad Prism 4.0 to calculate inhibition constants.

[4] = In-vivo radioactivity distribution experiment in normal mice (Reference Example 2); settings: Reference Example 2 numbering; for Radioactivity concentration in the brain of mice: intravenous
Procedure: Labeled compounds, [^11C]Compounds 23 and 7, were diluted with physiological saline containing 10% ethanol. 100 μL of each of the labeled compounds was intravenously infused to five 5-week-old male ddY mice per group, the animals were decapitated at 2, 10, 30, or 60 min, blood was collected, and then weights and radioactivities thereof were measured.

T1 sequence (P05067 672-713 limits assumed): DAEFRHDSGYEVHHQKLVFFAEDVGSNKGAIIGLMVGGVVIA

SMILES: CN(C)c1ccc(/C=C/C(=O)c2ccc(OCCF)cc2)cc1 [Compound 3 in Reference Example 2, (E)-1-(4-(2-fluoroethoxy)phenyl)-3-(4-(dimethylamino)phenyl)prop-2-en-1-one]
Ki [1]: 29 ± 2 nM

SMILES: CN(C)c1ccc(/C=C/C(=O)c2ccc(OCCOCCF)cc2)cc1 [Compound 5 in Reference Example 2, (E)-1-(4-(2-(2-fluoroethoxy)ethoxy)phenyl)-3-(4-(dimethylamino)phenyl)prop-2-en-1-one]
Ki [1]: 19 ± 1 nM

SMILES: CN(C)c1ccc(/C=C/C(=O)c2ccc(I)s2)cc1 [Compound 1 in Example 1, (E)-3-(4-(dimethylamino)phenyl)-1-(5-iodothiophen-2-yl)prop-2-en-1-one]
binding property to the amyloid aggregate ([2]; in words): very strong binding property
Ki ([2]; ligand [^125I]4-dimethylamino-4′-iodochalcone, mean and standard deviation of three experiments, read-out: Inhibition constants (Ki) for binding to Aβ(1-42) aggregate): 0.0052 ± 0.0007 µM

SMILES: Nc1c(/N=N/c2ccc(-c3ccc(/N=N/c4cc(S(=O)(=O)O)c5ccccc5c4N)cc3)cc2)cc(S(=O)(=O)O)c2ccccc12 [congo red]
inhibition of binding of [^125I]CL-NMe2 to the Aβ(1-42) aggregate [3]: did not inhibit binding of [^125I]CL-NMe2 to the Aβ(1-42) aggregate to a large extent

SMILES: CN(C)c1ccc(/C=C/C(=O)c2ccc(OCCOCCOCCF)cc2)cc1 [Compound 7 in Reference Example 2, (E)-1-(4-(2-(2-(2-fluoroethoxy)ethoxy)ethoxy)phenyl)-3-(4-(dimethylamino)phenyl)prop-2-en-1-one]
ratio of brain radioactivity at 60 min to that at 2 min after administration [4]: 8.1%
ratio of the radioactivity remaining in the brain at 30 min after administration to that at 2 min after administration [4]: 14.8%
Radioactivity concentration in the brain of mice ([4]; 2 min after administration, listed as [^11C] 7): 4.31 ± 0.33 % ID/g
Radioactivity concentration in the brain of mice ([4]; 2 min after administration, listed as [^11C]Compound 7): 4.31 % ID/g
Radioactivity concentration in the brain of mice ([4]; 10 min after administration): 1.38 ± 0.16 % ID/g
Radioactivity concentration in the brain of mice ([4]; 30 min after administration): 0.64 ± 0.07 % ID/g
Radioactivity concentration in the brain of mice ([4]; 60 min after administration, listed as [^11C] 7): 0.35 ± 0.03 % ID/g
Radioactivity concentration in the brain of mice ([4]; 60 min after administration, listed as [^11C]Compound 7): 0.35 % ID/g

SMILES: Cc1ccc2c(c1)sc(-c1ccc(N(C)C)cc1)[n+]2C.[Cl-] [thioflavine T]
inhibition of binding of [^125I]CL-NMe2 to the Aβ(1-42) aggregate [3]: did not inhibit binding of [^125I]CL-NMe2 to the Aβ(1-42) aggregate to a large extent

Second part, the compound after the results:

Ki [1]: 1000 ± 29 nM
SMILES: Nc1ccc(/C=C/C(=O)c2ccc(OCCOCCF)cc2)cc1 [Compound 16 in Reference Example 2, (E)-1-(4-(2-(2-fluoroethoxy)ethoxy)phenyl)-3-(4-aminophenyl)prop-2-en-1-one]

Ki [1]: 553 ± 22 nM
SMILES: Nc1ccc(/C=C/C(=O)c2ccc(OCCF)cc2)cc1 [Compound 11 in Reference Example 2, (E)-1-(4-(2-fluoroethoxy)phenyl)-3-(4-aminophenyl)prop-2-en-1-one]

Ki [1]: 187 ± 3 nM
SMILES: CNc1ccc(/C=C/C(=O)c2ccc(OCCOCCF)cc2)cc1 [Compound 17 in Reference Example 2, (E)-1-(4-(2-(2-fluoroethoxy)ethoxy)phenyl)-3-(4-(methylamino)phenyl)prop-2-en-1-one]
